Laboratory results as given in patent US8318914B2, “Elongases and methods for producing polyunsaturated fatty acids in transgenic organisms” (priority 2007, dated 2012).
Where two headings read alike, the source gives them in different places.

Key:
D9Elo(Ro) = format: cell-based, Rhizopus oryzae; conditions: 250 μM fatty acid fed to transformed yeast INVSC-1, 12 h induction medium
Procedure: Positive colonies were identified by PCR. […] In parallel, the empty vector pYES2.1/V5-His-TOPO was transformed in the abovedescribed manner into competent yeast cells of the strain INVSC-1. […] The specificity and activity of the gene to be characterized can be determined with reference to the added fatty acids.
(§1) The yeast cells from the main cultures were harvested by centrifugation (100×g, 5 min, 20° C.) and washed with 100 mM NaHCO3, pH 8.0 to remove residual medium and fatty acids. Starting with the yeast cell sediments, fatty acid methyl esters (FAMEs) were prepared by acid methanolysis. To this end, the cell sediments were incubated for one hour at 80° C. together with 2 ml of 1 N methanolic sulfuric acid and 2% (v/v) of dimethoxypropane. The FAMEs were extracted twice with petroleum ether (PE). To remove nonderivatized fatty acids, the organic phases were washed in each case once with 2 ml of 100 mM NaHCO3, pH 8.0 and 2 ml of distilled water. Thereafter, the PE phases were dried with Na2SO4, evaporated under argon and taken up in 100 μl of PE. […] The conditions for the GLC analysis are as follows: the oven temperature was programmed from 50° C. to 250° C. with an increment of 5° C./min and finally 10 min at 250° C. (holding).
(§2) The signals are identified by comparing the retention times with corresponding fatty acid standards (Sigma). […] Biochem. Biophys.

[1] = system: yeast strain INVSC-1 with empty vector pYES2.1/V5-His-TOPO; experiment: Vector control of Example 5: yeast with empty vector pYES2.1/V5-His-TOPO fed fatty acids; format: cell-based; conditions: 250 μM fatty acid fed to yeast INVSC-1, 12 h induction medium
Procedure: Plasmid pYES-D9Elo(Ro) was transformed into the yeast strain INVSC-1 (Invitrogen) following the manufacturer's instructions and selected on plates with DOB-U agar on the basis of uracil auxotrophy. Positive colonies were identified by PCR. To this end, in each case 1 μl of defrosted cells, 200 μM dNTPs, 2.5 U Taq polymerase and 100 pmol of each primer were used to carry out in a total volume of 50 μl. The PCR conditions were as follows: first denaturation at 95° C. for 5 minutes, followed by 30 cycles of 30 seconds at 94° C., 1 minute at 55° C. and 2 minutes at 72° C., and a last elongation step for 10 minutes at 72° C. In parallel, the empty vector pYES2.1/V5-His-TOPO was transformed in the abovedescribed manner into competent yeast cells of the strain INVSC-1. Yeast cells with the plasmid pYES-D9Elo(Ro) and pYES2.1/V5-His-TOPO were incubated for 12 h in liquid DOB-U medium at 28° C., 200 rpm, and then for a further 12 h in induction medium (DOB-U+2% (w/v) galactose+2% (w/v) raffinose) and 250 μM of fatty acids added to the medium. The specificity and activity of the gene to be characterized can be determined with reference to the added fatty acids.
The yeast cells from the main cultures were harvested by centrifugation (100×g, 5 min, 20° C.) and washed with 100 mM NaHCO3, pH 8.0 to remove residual medium and fatty acids. Starting with the yeast cell sediments, fatty acid methyl esters (FAMEs) were prepared by acid methanolysis. To this end, the cell sediments were incubated for one hour at 80° C. together with 2 ml of 1 N methanolic sulfuric acid and 2% (v/v) of dimethoxypropane. The FAMEs were extracted twice with petroleum ether (PE). To remove nonderivatized fatty acids, the organic phases were washed in each case once with 2 ml of 100 mM NaHCO3, pH 8.0 and 2 ml of distilled water. Thereafter, the PE phases were dried with Na2SO4, evaporated under argon and taken up in 100 μl of PE. The samples were separated on a DB-23 capillary column (30 m, 0.25 mm, 0.25 μm, Agilent) in a Hewlett-Packard 6850 gas chromatograph equipped with flame ionization detector. The conditions for the GLC analysis are as follows: the oven temperature was programmed from 50° C. to 250° C. with an increment of 5° C./min and finally 10 min at 250° C. (holding).
The signals are identified by comparing the retention times with corresponding fatty acid standards (Sigma). The methodology is described for example in Napier and Michaelson, 2001, Lipids. 36(8):761-766; Sayanova et al., 2001, Journal of Experimental Botany. 52(360):1581-1585, Sperling et al., 2001, Arch. Biochem. Biophys. 388(2):293-298 and Michaelson et al., 1998, FEBS Letters. 439(3):215-218.

[2] = system: yeast strain INVSC-1 with empty vector pYES2.1/V5-His-TOPO; experiment: Vector control of Example 4: yeast with empty vector pYES2.1/V5-His-TOPO fed fatty acids; format: cell-based; conditions: blank vector control; 250 μM fatty acid fed to yeast INVSC-1, 12 h induction medium
Procedure: (§3) Plasmid pYES-d6Elo(Pir) was then transformed into the yeast strain INVSC-1 (Invitrogen) following the manufacturer's instructions and selected on plates with DOB-U agar on the basis of uracil auxotrophy. Positive colonies were identified by PCR. To this end, in each case 1 μl of defrosted cells, 200 μM dNTPs, 2.5 U Taq-polymerase and 100 pmol of each primer were used to carry out in a total volume of 50 μl. The PCR conditions were as follows: first denaturation at 95° C. for 5 minuten, followed by 30 cycles of 30 seconds at 94° C., 1 minute at 55° C. and 2 minutes at 72° C., and a last elongation step for 10 minutes at 72° C. In parallel, the empty vector pYES2.1/V5-His-TOPO was transformed in the abovedescribed manner into competent yeast cells of the strain INVSC-1. Yeast cells with the plasmid pYES-d6Elo(Pir) and pYES2.1/V5-His-TOPO, respectively, were incubated for 12 h in liquid DOB-U medium at 28° C., 200 rpm, and then for a further 12 h in induction medium (DOB-U+2% (w/v) galactose+2% (w/v) raffinose) and 250 μM of fatty acids added to the medium. The specificity and activity of the gene to be characterized can be determined with reference to the added fatty acids.
as §1, §2
(§4) Table 3 describes the reaction of fatty acids by the plasmids which had been introduced into the yeasts. The conversion rates for the various exogenously added fatty acids are indicated in percent elongation efficiency. The blank vector pYES2.1/V5-His-TOPO acts as control for the activity of the gene sequence D6Elo(Pir). Fatty acids which have been formed in the yeasts with the vector pYES-D6Elo(Pir), but not in yeasts with the vector pYES2.1/V5-His-TOPO, can be attributed to the activity of the D6Elo(Pir) translation product.

D6Elo(Pir) = experiment: Yeast feeding assay: elongation of fed fatty acids by yeast expressing pYES-D6Elo(Pir), GC analysis of FAMEs; format: cell-based, Pythium irregulare; conditions: for Elongation efficiency in percent, pYES-D6Elo(Pir): 250 μM fatty acid fed to transformed yeast INVSC-1, 12 h induction medium, (area product/area substrate + product)*100
Procedure: as §3, §1, §2, §4

[3] = system: yeast strain INVSC-1 with empty vector pYES2.1/V5-His-TOPO; experiment: Vector control of Example 6: yeast with empty vector pYES2.1/V5-His-TOPO fed fatty acids; format: cell-based; conditions: 250 μM fatty acid fed to yeast INVSC-1, 12 h induction medium
Procedure: Plasmid pYES-D5Elo(Eg) was then transformed into the yeast strain INVSC-1 (Invitrogen) following the manufacturer's instructions and selected on plates with DOB-U agar on the basis of uracil auxotrophism. Positive colonies were identified by PCR. To this end, in each case 1 μl of defrosted cells, 200 μM dNTPs, 2.5 U Taq polymerase and 100 pmol of each primer were used to carry out in a total volume of 50 μl. The PCR conditions are as follows: first denaturation at 95° C. for 5 minutes, followed by 30 cycles of 30 seconds at 94° C., 1 minute at 55° C. and 2 minutes at 72° C., and a last elongation step for 10 minutes at 72° C. In parallel, the empty vector pYES2.1/V5-His-TOPO was transformed in the abovedescribed manner into competent yeast cells of the strain INVSC-1. Yeast cells with the plasmid pYES-D5Elo(Eg) and pYES2.1/V5-His-TOPO were incubated for 12 h in liquid DOB-U medium at 28° C., 200 rpm, and then for a further 12 h in induction medium (DOB-U+2% (w/v) galactose+2% (w/v) raffinose) and 250 μM of fatty acids added to the medium. The specificity and activity of the gene to be characterized can be determined with reference to the added fatty acids.
The yeast cells from the main cultures were harvested by centrifugation (100×g, 5 min, 20° C.) and washed with 100 mM NaHCO3, pH 8.0 to remove residual medium and fatty acids. […]

D5Elo(Eg) = format: cell-based, Euglena gracilis
Procedure: Plasmid pYES-D5Elo(Eg) was then transformed into the yeast strain INVSC-1 (Invitrogen) following the manufacturer's instructions and selected on plates with DOB-U agar on the basis of uracil auxotrophism. […] In parallel, the empty vector pYES2.1/V5-His-TOPO was transformed in the abovedescribed manner into competent yeast cells of the strain INVSC-1. Yeast cells with the plasmid pYES-D5Elo(Eg) and pYES2.1/V5-His-TOPO were incubated for 12 h in liquid DOB-U medium at 28° C., 200 rpm, and then for a further 12 h in induction medium (DOB-U+2% (w/v) galactose+2% (w/v) raffinose) and 250 μM of fatty acids added to the medium. The specificity and activity of the gene to be characterized can be determined with reference to the added fatty acids. […]
The substrate specificity of D5Elo(Eg) [SEQ ID NO: 8] was determined after expression and feeding of various fatty acids (FIG. 2). […] In FIG. 2A, yeasts were analyzed which had not been fed exogenously added fatty acids. […] In FIG. 2C, the yeast cells were analyzed after transformation with plasmid pYES-D5Elo(Eg) and feeding the fatty acid 20:4Δ5,8,11,14. […] In FIG. 2D, the yeast cells were analyzed after transformation with plasmid pYES-D5Elo(Eg) and feeding the fatty acid 20:5Δ5,8,11,14,17.

Compound | Elongation efficiency as a percentage, D9Elo(Ro) (D9Elo(Ro)) | Elongation efficiency as a percentage, pYes2.1/V5-His-TOPO [1] | Elongation efficiency in percent, pYES2.1/V5-His-TOPO [2] | Elongation efficiency in percent, pYES-D6Elo(Pir) (D6Elo(Pir)) | Elongation efficiency as a percentage, pYes2.1/V5-His-TOPO [3] | Elongation efficiency as a percentage, D5Elo(EG) (D5Elo(Eg); 250 μM fatty acid fed to transformed yeast INVSC-1, 12 h induction medium) | Substrate preference of D6Elo(Pir), in words (D6Elo(Pir); yeast feeding, summary of Table 3) | Elongation efficiency as a percentage, D5Elo(EG) (D5Elo(Eg))
CCCCCCCC/C=C\CCCCCCCC(=O)O [18:1Δ9, oleic acid] | 8.3% | 0.0% |  |  |  |  |  | 
CCCCC/C=C\C/C=C\CCCCCCCC(=O)O [18:2Δ9, 12, linoleic acid] | 19.3% | 0.0% | 1.1% | 11.1% |  |  |  | 
CCCCCC/C=C\CCCCCCCC(=O)O [16:1A9] | 36.6% | 2.4% |  |  |  |  |  | 
CC/C=C\C/C=C\C/C=C\CCCCCCCC(=O)O [18:3Δ9, 12, 15, linolenic acid] | 49.3% | 0.0% | 1.4% | 19.1% |  |  |  | 
CCCCC/C=C\C/C=C\C/C=C\C/C=C\CCCC(=O)O [20:4Δ5, 8, 11, 14, arachidonic acid] |  |  | 0.0% | 6.7% | 0.0% | 46.1% | Less activity | 
CCCCC/C=C\C/C=C\C/C=C\CCCCC(=O)O [18:3Δ6, 9, 12, γ-linolenic acid] |  |  | 1.3% | 27.1% | 0.9% |  |  | 2.9%
CC/C=C\C/C=C\C/C=C\C/C=C\CCCCC(=O)O [18:4Δ6, 9, 12, 15, stearidonic acid] |  |  | 1.2% | 38.7% |  |  |  | 
CCCCCC/C=C\CCCCCCCCCC(=O)O [18:1Δ11, cis-vaccenic acid] |  |  | 0.0% | 28.6% |  |  |  | 
